Laboratory results taken from patent publication US6462055B2, “Alpha-methylbenzyl-containing thiourea inhibitors of herpes viruses containing a phenylenediamine group” (Wyeth, priority 1998, dated 2002).
Values after ≈ are worked out from the molar mass of the structure shown.

Key:
HSV-1 = experiment: HSV Antiviral (ELISA) Assay in Vero cells; type: cell-based, herpes simplex virus type 1; settings: HSV-1, Vero cells; for IC50: Human alphaherpesvirus 1, read-out: IC50 (ug/ml) HSV
How it was run: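 Viral replication was quantified by cell-fixed ELISA for HSV glycoprotein D, using a β-galactosidase reporter and fluorogenic umbelliferyl substrate, about 24 h after HSV-1 infection (MOI 0.006) of Vero cells. Compounds, at several concentrations, were added 30 min pre-infection. IC50 was derived from fluorescence relative to the compound-free signal.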

VZV strain Ellen = experiment: VZV Antiviral (ELISA) Assay in human foreskin fibroblast cells; type: cell-based, varicella-zoster virus; settings: for IC50 / inhibition at 10 µg/mL: Human alphaherpesvirus 3, Fibroblast; for IC50: read-out: IC50 (ug/ml) VZV; for inhibition at 10 µg/mL: read-out: % inhibition 10 ug/ml VZV, 10 ug/ml
How it was run: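 Low-MOI (<0.1) Ellen infection of HFF overnight; cell mix plated 3.5×10^4/well with compound, DMEM + 2% FBS, 3 d, 37° C, 5% CO2. Fix, anti-gpII mAb ELISA, MUG substrate, fluorescence. IC50 vs compound-free signal.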

[1] = system: HCMV recombinant mutant virus (RV145); experiment: microbe, parasite or virus in culture; type: cell-based, human cytomegalovirus; settings: for IC50: Human betaherpesvirus 5, read-out: IC50 ug/ml HCMV, HCMV
How it was run: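 Read-out is beta-glucuronidase activity in cell lysates 96 h after infection, measured colorimetrically or fluorometrically. Reporter virus RV145 expresses the enzyme under a viral promoter in human foreskin fibroblasts treated with inhibitor.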

| Structure (SMILES) | IC50 (ug/ml) HSV (HSV-1) | IC50 (ug/ml) VZV (VZV strain Ellen) | % inhibition 10 ug/ml VZV (VZV strain Ellen) | IC50 ug/ml HCMV [1] | IC50 (HSV-1) | IC50 (VZV strain Ellen) | IC50 [1] | inhibition at 10 µg/mL (VZV strain Ellen) |
| --- | --- | --- | --- | --- | --- | --- | --- | --- |
| Cc1ccccc1C(=O)Nc1ccc(NC(=S)Nc2ccc(N(C)C3CCN(Cc4ccccc4)C3)c(Cl)c2)cc1 (stereo not shown) [Example 374] | 3 µg/mL (≈ 5.14 µM) | 4 µg/mL (≈ 6.85 µM) | 70% | 3 µg/mL (≈ 5.14 µM) | – | – | – | – |
| Nc1c(Cl)cccc1NC(=S)Nc1ccc(NC(=O)c2c(F)cccc2F)cc1 [Example 465] | >10 µg/mL | >10 µg/mL | 31% | >10 µg/mL | – | – | – | – |
| CC(NC(=S)Nc1ccc(NC(=O)c2cnc3ccccc3c2)cc1)c1ccc(F)cc1 (stereo not shown) [Example 988, Quinoline-3-carboxylic acid (4-{3-[1-(4-fluoro-phenyl)-ethyl]-thioureido}-phenyl)-amide] | – | – | – | – | > 10 µg/mL | 3.4 µg/mL (≈ 7.65 µM) | > 10 µg/mL | – |
| CN(C)c1ccc(Cl)cc1NC(=S)Nc1ccc(NC(=O)c2ccccc2F)cc1 [Example 490] | 1 µg/mL (≈ 2.26 µM) | >10 µg/mL | 68% | 2.5 µg/mL (≈ 5.64 µM) | – | – | – | – |
| CC(NC(=S)Nc1ccc(NC(=O)c2cccc(F)c2)cc1)c1ccc(F)cc1 (stereo not shown) [Example 800] | – | – | – | – | > 10 µg/mL | > 7.5 µg/mL | > 10 µg/mL | – |
| COc1cc(OC)c(NC(=S)Nc2ccc(NC(=O)c3ccc(F)cc3)cc2)cc1Cl [Example 116] | 2 µg/mL (≈ 4.35 µM) | >10 µg/mL | 0% | 3 µg/mL (≈ 6.52 µM) | – | – | – | – |
| CS(=O)(=O)c1ccc(NC(=S)Nc2ccc(NC(=O)c3c(F)cccc3F)cc2)cc1Cl [Example 392] | >10 µg/mL | 2 µg/mL (≈ 4.03 µM) | 92% | 0.5 µg/mL (≈ 1.01 µM) | – | – | – | – |
| COc1ccccc1C(=O)Nc1ccc(NC(=S)Nc2cc(Cl)c(OC)c(Cl)c2)cc1 [Example 873] | >10 µg/mL | >10 µg/mL | 23% | 0.3 µg/mL (≈ 0.63 µM) | – | – | – | – |
| CC(=O)c1cccc(NC(=S)Nc2ccc(NC(=O)c3ccccc3F)cc2)c1 [Example 965, N-{4-[3-(3-Acetyl-phenyl)-thioureido]-phenyl}-2-fluoro-benzamide] | – | – | – | – | 5 µg/mL (≈ 12.3 µM) | > 10 µg/mL | > 10 µg/mL | 12% |
| CC(N=[N+]=[N-])c1ccc(NC(=S)Nc2ccc(NC(=O)c3ccccc3F)cc2)cc1Cl (stereo not shown) [Example 492] | >10 µg/mL | >10 µg/mL | 32% | 2 µg/mL (≈ 4.26 µM) | – | – | – | – |
| CC(NC(=S)Nc1ccc(NC(=O)c2ccccc2F)cc1)c1ccccc1F (stereo not shown) [Example 778] | – | – | – | – | > 10 µg/mL | 3 µg/mL (≈ 7.29 µM) | 0.8 µg/mL (≈ 1.94 µM) | – |
| COc1ccccc1C(C)NC(=S)Nc1ccc(NC(=O)c2ccccc2F)cc1 (stereo not shown) [Example 788] | >10 µg/mL | >7.5 µg/mL | – | 1.8 µg/mL (≈ 4.25 µM) | – | – | – | – |
| O=C(Nc1ccc(NC(=S)Nc2cc(Cl)c(Cl)c(Cl)c2)cc1)c1ccccc1F [Example 937, 2-Fluoro-N-{4-[3-(3,4,5-trichloro-phenyl)-thioureido]-phenyl}-benzamide] | – | – | – | – | 0.7 µg/mL (≈ 1.49 µM) | > 10 µg/mL | 2 µg/mL (≈ 4.27 µM) | 25% |
| CC(NC(=S)Nc1ccc(NC(=O)c2nccc3ccccc23)cc1)c1cc2ccccc2o1 (stereo not shown) [Example 977, Isoquinoline-1-carboxylic acid {4-[3-(1-benzofuran-2-yl-ethyl)-thioureido]-phenyl}-amide] | – | – | – | – | > 10 µg/mL | 0.05 µg/mL (≈ 0.107 µM) | > 10 µg/mL | – |
| O=C(Nc1ccc(NC(=S)NCc2cccc(Cl)c2)cc1)c1ccccc1F [Example 511] | >10 µg/mL | >10 µg/mL | 10% | >10 µg/mL | – | – | – | – |
| CC(C)CN(C)c1cc(NC(=S)Nc2ccc(NC(=O)c3ccccc3F)cc2)cc(C(F)(F)F)c1 [Example 596] | >10 µg/mL | >10 µg/mL | – | 2 µg/mL (≈ 3.86 µM) | – | – | – | – |
| Nc1cc(Cl)cc(NC(=S)Nc2ccc(NC(=O)c3ccccc3F)cc2)c1 [Example 442] | 1 µg/mL (≈ 2.41 µM) | 8 µg/mL (≈ 19.3 µM) | 81% | 2 µg/mL (≈ 4.82 µM) | – | – | – | – |
| COc1cccc(C(C)NC(=S)Nc2ccc(NC(=O)c3ccccc3F)cc2)c1 (stereo not shown) [Example 789] | >10 µg/mL | 1.5 µg/mL (≈ 3.54 µM) | – | >2.2 µg/mL | – | – | – | – |
| CC(NC(=S)Nc1ccc(NC(=O)c2ccc(C(F)(F)F)cc2)cc1)c1ccc(F)cc1 (stereo not shown) [Example 1021, N-(4-{3-[1-(4-Fluorophenyl)-ethyl]-thioureido}-phenyl)-4-trifluoromethyl-benzamide] | – | – | – | – | > 10 µg/mL | 0.4 µg/mL (≈ 0.867 µM) | > 10 µg/mL | – |
| COc1cc(OC)c(NC(=S)Nc2ccc(NC(=O)c3cccc(OCCN4CCOCC4)c3)cc2)cc1Cl [Example 258] | 1.5 µg/mL (≈ 2.63 µM) | 1.5 µg/mL (≈ 2.63 µM) | 92% | 5 µg/mL (≈ 8.76 µM) | – | – | – | – |
| CN(C)c1ccc(NC(=S)Nc2ccc(NC(=O)c3c(F)cccc3F)cc2)cc1Cl [Example 348] | 4 µg/mL (≈ 8.68 µM) | 8 µg/mL (≈ 17.4 µM) | 95% | 0.8 µg/mL (≈ 1.74 µM) | – | – | – | – |
| O=C(Nc1ccc(NC(=S)NC(Cc2ccccc2)c2ccc(F)cc2)cc1)c1ccccc1F (stereo not shown) [Example 774] | >10 µg/mL | >7.5 µg/mL | – | 0.5 µg/mL (≈ 1.03 µM) | – | – | – | – |
| CC(NC(=S)Nc1ccc(NC(=O)c2ccccc2C(F)(F)F)cc1)c1cc2ccccc2o1 (stereo not shown) [Example 974, N-{4-[3-(1-Benzofuran-2-yl-ethyl)-thioureido]-phenyl}-2-trifluoromethyl-benzamide] | – | – | – | – | > 10 µg/mL | > 7.5 µg/mL | > 10 µg/mL | – |
| COc1cc(C)c(Cl)cc1NC(=S)Nc1ccc(NC(=O)c2ccccc2F)cc1 [Example 849, N-{4-[3-(5-Chloro-2-methoxy-4-methyl-phenyl)-thioureido]-phenyl}-2-fluoro-benzamide] | – | – | – | – | > 10 µg/mL | > 10 µg/mL | > 10 µg/mL | 38% |
| CCSc1ccc(NC(=S)Nc2ccc(NC(=O)c3ccccc3F)cc2)cc1Cl [Example 386] | >10 µg/mL | >10 µg/mL | 29% | 2 µg/mL (≈ 4.35 µM) | – | – | – | – |
| COc1cc(OC)c(NC(=S)Nc2ccc(NC(=O)c3ccccc3NC(C)=O)cc2)cc1Cl [Example 189] | 2.5 µg/mL (≈ 5.01 µM) | >10 µg/mL | 59% | >10 µg/mL | – | – | – | – |
